Data as given in patent US8507440B2, “Protein kinase C peptides for use in withdrawal” (The Board of Trustees of the Leland Stanford Junior …, priority 2002, dated 2013).
Ends that are not written are not given here.

Columns and labels:
[1] = test system: N-methyl-D-aspartate (NMDA) receptor currents; assay: alcohol withdrawal hyperresponsiveness of NMDA-evoked currents in lumbar spinal cord slice motor neurons; type: cell-based, rat
From the text: Spinal cords were taken from young rats, and slices of these cords were made and placed in artificial cerebrospinal fluid for patch clamp electrophysiological analysis, to characterize the ability of γPKC peptides to mediate alcohol withdrawal hyperresponsiveness of N-methyl-D-aspartate (NMDA) receptor currents. FIG. 7A is a schematic diagram of the technique, where a lumbar spinal cord slice 10 is shown. The placement of a recording electrode 12 and a pipette 14 for application of NMDA relative to a motor neuron 16 is illustrated.
Sprague-Dawley rats at postnatal day 7-10 were anesthetized with halothane, decapitated, and the spinal cords were quickly removed. Slices […] thick were sectioned from the lumbar region. Whole cell voltage clamp recordings were made from visually-identified motor neurons using infrared video microscopy, a 60× water immersion lens, and a MultiClamp 700A patch clamp amplifier. Cells were held at a holding potential of −60 mV in artificial cerebrospinal fluid (ACSF) containing bicuculline methiodide ([…]), strychnine ([…]), and tetrodotoxin ([…]). Postsynaptic currents were evoked by direct pressure application of 2 mM N-methyl-D-aspartate (NMDA) from a pipette positioned near the recorded cell at 1-2 min intervals, as illustrated in FIG. 7A. The area of evoked currents during and following 100 mM ethanol (EtOH) application was measured and normalized to the average baseline current area during the 10 minutes preceding EtOH application. Data are expressed as mean +/−SEM: Statistical significance was determined by one-way ANOVA followed by Dunn's or Tukey's multiple comparison test with significance set at p<0.05.

isolated spinal cords = assay: slow ventral root potential (sVRP) of isolated spinal cord, naloxone-precipitated morphine withdrawal hyperresponsiveness; type: cell-based, rat; conditions: for sVRP area 30 minutes after naloxone / block of naloxone-precipitated withdrawal hyperresponsiveness of sVRP: morphine 200 nM then naloxone 200 nM, GF109203X 1.2 μM, Go6976 1 μM, εV1-2 2 nM; for block of naloxone-precipitated withdrawal hyperresponsiveness of sVRP: γV5-3 4 nM, Tat 2-4 nM
From the text: The slow ventral root potential (sVRP) is an electrophysiolgical measurement of nociceptive-related response in the spinal cord lasting approximately 40 seconds (Yanagisawa et al., Eur. J. Pharmacol., 106:231-239 (1984); Akagi H. et al., British J. Pharmacol., 84:663-673 (1985); Otsuka M. et al., J. Physiol., 395:255-270 (1988)). It is evoked by stimulation of a lumbar dorsal root at an intensity sufficient to activate small diameter afferents that transmit nociceptive (painful) stimuli from the periphery to the spinal cord (Lozier A. P. et al., J. Neurophysiol., 74:1001-1009 (1995)). […] Thus, the sVRP is related to pain, and its exaggeration following naloxone is a manifestation of withdrawal which translates to an increase in pain sensation in vivo.
Spinal cords from 4-7 day old rats (Charles River Laboratories) were removed and arranged for electrophysiological recording of the slow ventral root potentials (sVRP) (Woodley S. J., et al., Brain Res., 559:17-21 (1991). Briefly, pups were decapitated under halothane anesthesia and the spinal cord removed to an oxygenated artificial cerebrospinal fluid solution. A suction stimulating electrode was placed on a lumbar dorsal root and a suction recording electrode on the corresponding ipsilateral ventral root. Square wave stimuli 0.2 ms in duration were administered at a constant frequency of 1/50 seconds throughout the experiment. Test agents were applied and the responses were recorded, digitized, and area under the curve measured.
After a baseline reading of the sVRP, morphine (200 nM) was applied to the isolated spinal cords. The sVRP was again recorded to characterize the response to morphine. Naloxone (200 nM) was then applied and the sVRPs recorded.
FIGS. 2A-2D show the results after application of non-specific PKC antagonist, GF109203X (1.2 μM), and of an inhibitor specific to Ca++-dependent PKC isoforms, Go6976 (1 μM).
FIGS. 3A-3B show the results after application of the εPCK antagonist (εV1-2; SEQ ID NO:1, 2 nM), conjugated to a peptide carrier (Tat; SEQ ID NO:3) and the Tat peptide alone (2 nM; SEQ ID NO:3). FIGS. 3C-3D show the results after application of γPKC (γV5-3; SEQ ID NO:2, 4 nM) conjugated to a peptide carrier (Tat; SEQ ID NO:3) and of the Tat peptide alone (4 nm; SEQ ID NO:3).

postnatal day 7 rats = assay: naloxone-precipitated morphine withdrawal, mechanical threshold and thermal paw withdrawal latency in vivo; set-up: species or system rat; conditions: for block of naloxone-precipitated morphine withdrawal allodynia and hyperalgesia: 10 μM in 5 μl intrathecally prior to morphine 1 mg/kg s.c., naloxone 0.25 mg/kg 30 min after morphine
Description: In vivo studies on opiate withdrawal allodynia and hyperalgesia were conducted using postnatal day 7 rats. As described in Example 2, postnatal day 7 rats were given morphine subcutaneously followed 30 minutes later by naloxone or saline. Mechanical threshold using von Frey filaments to produce the flexion withdrawal response of the hind paw and thermal stimulation to measure the paw withdrawal latency were measured as described in Example 2.
FIG. 5A illustrates a treatment protocol where rat pups were given a PKC antagonist intrathecally (e.g., directly into the cerebrospinal fluid surrounding the spinal cord) prior to subcutaneous morphine delivery. Thirty minutes after morphine delivery, naloxone was administered, followed by mechanical allodynia and thermal hyperalgesia testing (as described in Example 2).
Postnatal day 7 Sprague-Dawley rats (Charles River Laboratories) of both sexes were used. For all behavioural experiments rats were maintained at nesting temperature with overhead heatlamps.
To measure mechanical thresholds, rats were placed on an elevated wire mesh (2 mm openings). Von Frey hairs (Stoelting Co., WoodDale, Ill., USA) were used to elicit a cutaneous flexion withdrawal response as described by Fitzgerald et al. (Fitzgerald M., et al., PAIN […] INFANTS, CHILDREN AND ADOLESCENTS; Schetchter and Yaster, Eds., pp 11-32, Williams and Williams (Baltimore, Md.) (1993). Von Frey hairs of increasing intensity were applied three times to the plantar surface of the left hind paw until a paw withdrawal was elicited. The lowest intensity Von Frey hair required to produce a withdrawal reflex was recorded as the response threshold to a low-intensity mechanical stimulus.
Thermal paw withdrawal latencies were measured using the Ugo Basile Plantar Testing apparatus (Stoelting Co., WoodDale, Ill., USA). Briefly, postnatal day 7 rats were placed under inverted Plexiglas enclosures and the plantar surface of the left hindpaw was heated from below with the IR intensity of the lamp set at 30. Two baseline thermal response latency measures were collected prior to morphine administration with a cut-off of 20 seconds enlisted to prevent tissue damage.
Postnatal day 7 rats were administered 1 mg/kg morphine sulfate (Sigma) subcutaneously in 50 μl saline. Mechanical thresholds were measured 15 minutes later to establish analgesia. Rats were returned to their dam. At 30 or 120 minutes post morphine, rats were administered 0.25 mg/kg naloxone (Sigma) subcutaneously in 50 μl saline. Mechanical thresholds and thermal paw withdrawal latencies were measured in 10 minute intervals. Tat conjugated peptide inhibitors specific to the ε (εV1-2; SEQ ID NO:1, 10 μM) and γ ([…]; SEQ ID NO:2, 10 μM) isoforms of PKC, Tat carrier (10 μM), or saline were administered in 5 μl volumes intrathecally via direct lumbar puncture using a sterile 29 gauge 3/10 cc insulin syringe in rats lightly anesthetized with halothane. To allow for complete recovery from anesthetic, animals were administered peptides or control solutions 30 minutes prior to naloxone.
An unpaired T-test was used to determine the significance of post-naloxone measures from baseline measures. Significance between treatment groups for PKC inhibitor studies both in vivo and in vitro was determined by one way analysis of variance (ANOVA) followed by a post-hoc Bonferroni analysis. P-values<0.05 were considered significant. All statistical analysis was done with GraphPad Prism version 3.02.

[2] = test system: 7 day old and 21 day old rats; assay: ethanol withdrawal thermal hyperalgesia testing (paw withdrawal latency); type: in vivo, rat; conditions: 7 day old rats; intrathecally 4 hours after 4 g/kg 15% EtOH
[3] = test system: 7 day old and 21 day old rats; assay: ethanol withdrawal mechanical allodynia testing (von Frey threshold withdrawal force); type: in vivo, rat

In the case of `O=C(O)CN(CC(=O)O)c1ccccc1OCCOc1ccccc1N(CC(=O)O)CC(=O)O` [BAPTA, 1,2-bis(2-aminophenoxy)ethane-N,N,N′,N′-tetraacetic acid, reference compound], the “ethanol withdrawal hyperresponsiveness of NMDA-evoked currents with calcium chelator” value ([1]; 30 mM in recording pipette) is reported as “no ethanol-withdrawal hyperresponsiveness”.
In the case of `CN(C)CCCn1cc(C2=C(c3c[nH]c4ccccc34)C(=O)NC2=O)c2ccccc21` [GF109203X], the “sVRP area 30 minutes after naloxone” value (isolated spinal cords) is reported as 87 % of control and the “block of naloxone-precipitated withdrawal hyperresponsiveness of sVRP” value (from here on “block … of sVRP”) (isolated spinal cords) is reported as “blocked the withdrawal hyperresponsivess”.
In the case of `Cn1c2ccccc2c2c3c(c4c5ccccc5n(CCC#N)c4c21)CNC3=O` [Go6976], the “sVRP area 30 minutes after naloxone” value (isolated spinal cords) is reported as 127.4 % of control and the “block … of sVRP” value (isolated spinal cords) is reported as “did not block withdrawal”.
For `COc1ccc2c(c[n+](C)c3c4cc5c(cc4ccc23)OCO5)c1OC` [chelerythrine], the “sVRP area 30 minutes after naloxone” value (isolated spinal cords) was 100.1 % of control, the “block … of sVRP” value (isolated spinal cords) was “did block morphine withdrawal” and the “effect on the response to morphine” value (isolated spinal cords; morphine-exposed spinal cords) was “did not alter the response to morphine”.
`CN1CC[C@]23c4c5ccc(O)c4O[C@H]2[C@@H](O)C=C[C@H]3[C@H]1C5` [morphine] was tested, and the “effect of morphine on sVRP” value (isolated spinal cords; morphine 200 nM) was “depressed” and the “paw withdrawal threshold and latency after morphine” value (postnatal day 7 rats; morphine 1 mg/kg s.c., then saline) was “exhibited profound analgesia”.
With `C=CCN1CC[C@]23c4c5ccc(O)c4O[C@H]2C(=O)CC[C@@]3(O)[C@H]1C5` [naloxone] the “sVRP area 30 minutes after naloxone” value (isolated spinal cords) was 140.9 % of control, the “mechanical threshold and paw withdrawal latency, naloxone after morphine” value (postnatal day 7 rats; naloxone 0.25 mg/kg s.c. following 30 minutes of morphine exposure) was “precipitated mechanical allodynia and thermal hyperalgesia” and the “mechanical threshold and paw withdrawal latency, naloxone alone” value (postnatal day 7 rats; no morphine) was “did not alter paw withdrawal thresholds to mechanical stimulation or paw withdrawal latency to thermal stimulation”.
With “Tat: Tat-derived carrier peptide (Tat 47-57), control for the conjugated inhibitors” the “block … of sVRP” value (isolated spinal cords) was “did not block the withdrawal response”, the “block of naloxone-precipitated morphine withdrawal allodynia and hyperalgesia” value (postnatal day 7 rats) was “did not prevent allodynia and hyperalgesia” and the “effect on ethanol withdrawal hyperresponsiveness of NMDA-evoked currents” value ([1]; 10 nM Tat carrier alone) was “does not prevent the symptom”.
In the case of “εV1-2: εPKC antagonist peptide, SEQ ID NO:1, isozyme-specific translocation inhibitor, used Tat-conjugated (EAVSLKPT; also: Tat peptide conjugate; listed as Homo sapiens)”, the “thermal hyperalgesia, paw withdrawal latency” value [2] is reported as “completely prevented thermal hyperalgesia”, the “effect on sVRP of inhibitor alone” value (isolated spinal cords; absence of morphine) is reported as “did not alter the sVRP” and the “sVRP area 30 minutes after naloxone” value (isolated spinal cords) is reported as 102 % of control. The “block … of sVRP” value (isolated spinal cords) was “blocked withdrawal hyperresponsiveness”, the “block of naloxone-precipitated morphine withdrawal allodynia and hyperalgesia” value (postnatal day 7 rats) was “effective to block naloxone-precipitated morphine withdrawal allodyina and hyperalgesia” and the “mechanical allodynia, threshold withdrawal force” value ([3]; 7 day old rats, 5 μL of 20 μM intrathecally 5 hours after 4 g/kg 15% EtOH i.p., 6 and 7 hour post-EtOH, versus Tat carrier) was “attenuated mechanical allodynia”. The “mechanical allodynia, threshold withdrawal response” value ([3]; 21 day old rats, 10 μL of 20 μM intrathecally 4 hours after 4 g/kg 15% EtOH i.p.) was “slightly attenuated the response at 6 hours and 8 hours post ethanol injection”.
